The record followed here is US8178690B2, “Compounds and methods for inhibiting the interaction of BCL proteins with binding partners” (Infinity Pharmaceuticals, Inc., priority 2006, dated 2012).

Experiment [1] has as its target Bcl-2 (Homo sapiens, UniProt P10415). Put plainly: Bcl-2 binding affinity analysis (fluorescence polarization binding assay). Particulars: read-out: BcI2 (Ki, Bcl-2 binding affinity). From the text: (§1) Bcl-2 and Bcl-xL binding may be determined using a variety of known methods. One such assay is a sensitive and quantitative in vitro binding assay using fluorescence polarization (FP) described by Wang, J.-L.; Zhang, Z-J.; Choksi, S.; Sjam. S.; Lu, Z.; Croce, C. M.; Alnemri, E. S.; Komgold, R.; Huang, Z. Cell permeable Bcl-2 binding peptides: a chemical approach to apoptosis induction in tumor cells. Cancer Res. 2000, 60, 1498-1502).
(§2) Bcl-2 and Bcl-xL binding affinity analysis data is presented below for various compounds of the invention.

The target of experiment [2] is Bcl-xL (Homo sapiens, UniProt Q07817). Put plainly: Bcl-xL binding affinity analysis (fluorescence polarization binding assay). Particulars: read-out: BcI-XI (Ki, Bcl-xL binding affinity).
Sequence of Bcl-xL (Q07817 whole entry): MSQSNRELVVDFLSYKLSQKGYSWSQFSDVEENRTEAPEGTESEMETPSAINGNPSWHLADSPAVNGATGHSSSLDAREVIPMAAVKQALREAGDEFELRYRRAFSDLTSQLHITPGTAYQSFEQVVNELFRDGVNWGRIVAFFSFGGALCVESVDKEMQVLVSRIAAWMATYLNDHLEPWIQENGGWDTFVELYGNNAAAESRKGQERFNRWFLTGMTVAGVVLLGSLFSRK
Source text: as §1, §2

Sequence of Bcl-2 (P10415 whole entry): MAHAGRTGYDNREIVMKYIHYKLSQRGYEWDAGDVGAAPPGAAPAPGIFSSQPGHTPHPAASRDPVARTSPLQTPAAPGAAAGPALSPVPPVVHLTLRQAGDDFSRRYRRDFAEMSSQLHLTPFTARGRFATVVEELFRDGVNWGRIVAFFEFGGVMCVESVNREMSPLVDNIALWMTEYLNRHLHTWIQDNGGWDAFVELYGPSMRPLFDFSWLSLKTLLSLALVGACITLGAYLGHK

Turning to `CNC[C@H](Cc1ccccc1)NC(=O)c1cc(-c2cccc(CN3O[C@@H](CO)[C@@H]([C@H](C)O)[C@H]3C(=O)N[C@H]3C[C@H]4C[C@@H]([C@@H]3C)C4(C)C)c2OC)cc(N(C)C)c1` [Compound 165], the inhibition constant (Ki) in experiment [1] was less than 1 nM; in experiment [2], less than 1000 nM.

For `COc1c(CN2O[C@@H](CO)[C@@H]([C@H](C)O)[C@H]2C(=O)N[C@H]2C[C@H]3C[C@@H]([C@@H]2C)C3(C)C)cccc1-c1cc(C(=O)N[C@@H](CN(C)C)CS(=O)(=O)C(C)(C)C)cc(N(C)C)c1` [Compound 170], the Ki in experiment [1] was in the range of 1 to 5 nM; in experiment [2], 1000 to 5000 nM.

For the compound `CCOc1c(CN2O[C@@H](CO)[C@@H]([C@H](C)O)[C@H]2C(=O)N[C@H]2C[C@H]3C[C@@H]([C@@H]2C)C3(C)C)cccc1-c1cc(C(=O)N[C@H](CN(C)C)CS(C)(=O)=O)cc(N(C)C)c1` [Compound 176], the Ki in experiment [1] fell in the range of 1 to 5 nM; in experiment [2], 1000 to 5000 nM.

On to `CCOc1c(CN2O[C@@H](CO)[C@@H]([C@H](C)O)[C@H]2C(=O)N[C@H]2C[C@H]3C[C@@H]([C@@H]2C)C3(C)C)cccc1-c1cc(C(=O)N[C@@H](Cc2ccccc2)CN2CCCC2)cc(N(C)C)c1` [Compound 182], for which the Ki in experiment [1] was less than 1 nM; in experiment [2] it was less than 1000 nM.

In the case of `COc1c(CN2O[C@@H](CO)[C@@H]([C@H](C)O)[C@H]2C(=O)N[C@H]2C[C@H]3CC([C@@H]2C)C3(C)C)ccc(Cl)c1-c1cc(C(=O)N[C@@H](CC(C)C)CN(C)C)cc(N(C)C)c1` [Compound 183], the Ki was in the range of 1 to 5 nM in experiment [1] and 1000 to 5000 nM in experiment [2].

Regarding `COc1c(CN2O[C@@H](CO)[C@@H]([C@H](C)O)[C@H]2C(=O)N[C@H]2C[C@H]3C[C@@H]([C@@H]2C)C3(C)C)cccc1-c1cc(C(=O)N2CCN(C)C[C@@H]2Cc2ccccc2)cc(N(C)C)c1` [Compound 193], the Ki lay in the range of 1 to 5 nM in experiment [1] and 1000 to 5000 nM in experiment [2].

On to `COc1c(CN2O[C@@H](CO)[C@@H]([C@H](C)O)[C@H]2C(=O)N[C@H]2C[C@H]3C[C@@H]([C@@H]2C)C3(C)C)cccc1-c1cc2c(c(C(=O)N[C@H](CN(C)C)CC(C)(C)C)c1)OC(C)(C)C2` [Compound 196], for which the inhibition constant (Ki) was less than 1 nM in experiment [1] and less than 1000 nM in experiment [2].

Turning to `COc1c(CN2O[C@@H](CO)[C@@H]([C@H](C)O)[C@H]2C(=O)N[C@H]2C[C@H]3C[C@@H]([C@@H]2C)C3(C)C)cccc1-c1cc2c(c(C(=O)N[C@H](CN(C)C)CC(C)(C)C)c1)OCO2` [Compound 202], the Ki in experiment [1] is less than 1 nM; in experiment [2] it was less than 1000 nM.

As for `COc1c(CN2O[C@@H](CO)[C@@H]([C@H](C)O)[C@H]2C(=O)N[C@H]2C[C@H]3C[C@@H]([C@@H]2C)C3(C)C)cccc1-c1cc(C(=O)N[C@@H](Cc2cccc(N)c2)CN(C)C)cc(N(C)C)c1` [Compound 206], the Ki in experiment [1] is less than 1 nM; in experiment [2], less than 1000 nM.

Regarding `COc1c(CN2O[C@@H](CN)[C@@H]([C@H](C)O)[C@H]2C(=O)N[C@H]2C[C@H]3C[C@@H]([C@@H]2C)C3(C)C)cccc1-c1cc(C(=O)N[C@@H]2CCN(C)C2)cc(N(C)C)c1` [Compound 213], the Ki in experiment [1] is less than 1 nM; in experiment [2], more than 10000 nM.

On to `CCOc1c(CN2O[C@@H](CN)[C@@H]([C@H](C)O)[C@H]2C(=O)N[C@H]2C[C@H]3C[C@@H]([C@@H]2C)C3(C)C)cccc1-c1cc(C(=O)N[C@@H](Cc2ccccc2)CN(C)C)cc(N(C)C)c1` [Compound 218], for which the values for the Ki in experiment [1] and in experiment [2] were less than 1 nM and 1000 to 5000 nM, respectively.

Consider `C[C@@H]1[C@@H](NC(=O)[C@@H]2[C@H]([C@H](C)O)[C@H](CO)ON2Cc2cccc(-c3cc(C(=O)N[C@@H](Cc4ccccc4)CN(C)C)cc(N(C)C)c3)c2OCCN2CCOCC2)C[C@H]2C[C@@H]1C2(C)C` [Compound 230], for which the Ki was less than 1 nM in experiment [1] and less than 1000 nM in experiment [2].

Turning to `COc1c(CN2O[C@@H](CO)[C@@H]([C@H](C)O)[C@H]2C(=O)N[C@H]2C[C@H]3C[C@@H]([C@@H]2C)C3(C)C)cccc1-c1cc(C(=O)N[C@@H](Cc2ccccc2)CN(C)C)cc(N2CCOCC2)c1` [Compound 240], the Ki is less than 1 nM in experiment [1] and 1000 to 5000 nM in experiment [2].

`COc1c(CN2O[C@@H](CO)[C@@H]([C@H](C)O)[C@H]2C(=O)N[C@H]2C[C@H]3C[C@@H]([C@@H]2C)C3(C)C)cccc1-c1cc(C(=O)N2[C@H](CN(C)C)CC[C@@H]2c2ccccc2)cc(N(C)C)c1` [Compound 247]: the Ki was less than 1 nM in experiment [1] and less than 1000 nM in experiment [2].

`COc1c(CN2O[C@@H](CO)[C@@H]([C@H](C)O)[C@H]2C(=O)N[C@H]2C[C@H]3C[C@@H]([C@@H]2C)C3(C)C)cccc1-c1cc(C(=O)N[C@@H](Cc2cccs2)CN(C)C)cc(N(C)C)c1` [Compound 251]: the Ki in experiment [1] is less than 1 nM; in experiment [2] it was less than 1000 nM.

Take `COc1c(CN2O[C@@H](CN)[C@@H]([C@H](C)O)[C@H]2C(=O)N[C@H]2C[C@H]3C[C@@H]([C@@H]2C)C3(C)C)cccc1-c1cc(C(=O)N[C@@H](Cc2ccccn2)CN(C)C)cc(N(C)C)c1` [Compound 252]: the Ki in experiment [1] was less than 1 nM; in experiment [2], 1000 to 5000 nM.

Consider `COc1c(CN2O[C@@H](CO)[C@@H]([C@H](C)O)[C@H]2C(=O)N[C@H]2C[C@H]3C[C@@H]([C@@H]2C)C3(C)C)cccc1-c1cc(Cl)cc(C(=O)N[C@@H](Cc2ccccc2)CN(C)C)c1` [Compound 255], for which the Ki is less than 1 nM in experiment [1] and less than 1000 nM in experiment [2].

`COc1c(CN2O[C@@H](CO)[C@@H]([C@H](C)O)[C@H]2C(=O)N[C@H]2C[C@H]3C[C@@H]([C@@H]2C)C3(C)C)cccc1-c1cc2c(c(C(=O)N[C@H](CN(C)C)CC(C)(C)C)c1)OCC2` [Compound 256]: the Ki in experiment [1] was less than 1 nM; in experiment [2] it was less than 1000 nM.

With `COc1c(CN2O[C@@H](CO)[C@@H]([C@H](C)O)[C@H]2C(=O)N[C@H]2C[C@H]3C[C@@H]([C@@H]2C)C3(C)C)cccc1-c1cc(C(=O)N[C@H](CN(C)C)CC(C)(C)C)c(Br)c(N(C)C)c1` [Compound 257], the Ki in experiment [1] was less than 1 nM; in experiment [2], less than 1000 nM.

For the compound `CCOc1c(CN2O[C@@H](CO)[C@@H]([C@H](C)O)[C@H]2C(=O)N[C@H]2C[C@H]3C[C@@H]([C@@H]2C)C3(C)C)cccc1-c1cc(C(=O)N[C@H](CC(C)C)CN(C)C)cc(N(C)C)c1` [Compound 259], the Ki in experiment [1] is less than 1 nM; in experiment [2], 1000 to 5000 nM.

Turning to `COc1c(CN2O[C@@H](CO)[C@@H]([C@H](C)O)[C@H]2C(=O)N[C@H]2C[C@H]3C[C@@H]([C@@H]2C)C3(C)C)cccc1-c1cc(C(=O)N[C@@H](CC(C)C)C(N)=O)cc(N(C)C)c1` [Compound 260], the Ki was 1 to 5 nM in experiment [1] and less than 1000 nM in experiment [2].

For the compound `COc1c(CN2O[C@@H](CO)[C@@H]([C@H](C)O)[C@H]2C(=O)N[C@H]2C[C@H]3C[C@@H]([C@@H]2C)C3(C)C)cccc1-c1cc(NC(C)=O)cc(C(=O)N[C@@H](CC(C)C)CN(C)C)c1` [Compound 262], the Ki in experiment [1] lay in the range of 5 to 9 nM; in experiment [2], 1000 to 5000 nM.

On to `COc1c(CN2O[C@@H](CO)[C@@H]([C@H](C)O)[C@H]2C(=O)N[C@H]2C[C@H]3C[C@@H]([C@@H]2C)C3(C)C)cccc1-c1cc(C(=O)N[C@@H](CC(C)C)CN(C)C)cc([N+](=O)[O-])c1` [Compound 263], for which the results for the Ki in experiment [1] and in experiment [2] were less than 1 nM and less than 1000 nM, respectively.

On to `COc1c(CN2O[C@@H](CO)[C@@H]([C@H](C)O)[C@H]2C(=O)N[C@H]2C[C@H]3C[C@@H]([C@@H]2C)C3(C)C)cccc1-c1cc(C(=O)N[C@@H](Cc2ccccc2)CN(C)C)cc([N+](=O)[O-])c1` [Compound 264], for which the Ki in experiment [1] is less than 1 nM; in experiment [2] it was less than 1000 nM.

Regarding `COc1c(CN2O[C@@H](CO)[C@@H]([C@H](C)O)[C@H]2C(=O)N[C@H]2C[C@H]3C[C@@H]([C@@H]2C)C3(C)C)cccc1-c1cc(C(=O)N[C@@H](CCc2ccccc2)CN(C)C)cc([N+](=O)[O-])c1` [Compound 265], the values for the Ki in experiment [1] and in experiment [2] were less than 1 nM and less than 1000 nM, respectively.

Take `CCN(CC)c1cc(C(=O)N[C@@H](CC(C)C)CN(C)C)cc(-c2cccc(CN3O[C@@H](CO)[C@@H]([C@H](C)O)[C@H]3C(=O)N[C@H]3C[C@H]4C[C@@H]([C@@H]3C)C4(C)C)c2OC)c1` [Compound 267]: the inhibition constant Ki is less than 1 nM in experiment [1] and 1000 to 5000 nM in experiment [2].

In the case of `COc1c(CN2O[C@@H](CO)[C@@H]([C@H](C)O)[C@H]2C(=O)N[C@H]2C[C@H]3C[C@@H]([C@@H]2C)C3(C)C)cccc1-c1cc(C(=O)N[C@@H](CC(C)C)CN(C)C)cc(N2CCCCC2)c1` [Compound 268], the Ki in experiment [1] was in the range of 1 to 5 nM; in experiment [2] it was 1000 to 5000 nM.

In the case of `CCNc1cc(C(=O)N[C@@H](CC(C)C)CN(C)C)cc(-c2cccc(CN3O[C@@H](CO)[C@@H]([C@H](C)O)[C@H]3C(=O)N[C@H]3C[C@H]4C[C@@H]([C@@H]3C)C4(C)C)c2OC)c1` [Compound 269], the Ki in experiment [1] is less than 1 nM; in experiment [2], less than 1000 nM.

On to `COc1c(CN2O[C@@H](CO)[C@@H]([C@H](C)O)[C@H]2C(=O)N[C@H]2C[C@H]3C[C@@H]([C@@H]2C)C3(C)C)cccc1-c1cc(NCC(C)C)cc(C(=O)N[C@@H](CC(C)C)CN(C)C)c1` [Compound 270], for which the Ki in experiment [1] was in the range of 1 to 5 nM; in experiment [2], 1000 to 5000 nM.

`COc1c(CN2O[C@@H](CO)[C@@H]([C@H](C)O)[C@H]2C(=O)N[C@H]2C[C@H]3C[C@@H]([C@@H]2C)C3(C)C)cccc1-c1cc(C(=O)N[C@@H](CC(C)C)CN(C)C)cc(N(C)CC(C)C)c1` [Compound 271]: the figures for the Ki in experiment [1] and in experiment [2] were less than 1 nM and less than 1000 nM, respectively.

Consider `COc1c(CN2O[C@@H](CN)[C@@H]([C@H](C)O)[C@H]2C(=O)N[C@H]2C[C@H]3C[C@@H]([C@@H]2C)C3(C)C)cccc1-c1cc(C(=O)N[C@H](CN(C)C)[C@H](O)c2ccccc2)cc(N(C)C)c1` [Compound 272], for which the inhibition constant Ki in experiment [1] is less than 1 nM; in experiment [2], 1000 to 5000 nM.
